Data taken from ChEMBL document CHEMBL1201862, “PubChem BioAssay data set” (2004).
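Protocol summary: plate cells (96-well), add compound at 5 concentrations, incubate 48 h, interpolate endpoints linearly. Abbreviation: GI50, concentration required for 50% inhibition of growth.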 The source made the active and inactive calls. Cut-off read from the data, not from the text of the source: active = GI50 up to about 1.1 µM and inactive = higher.

Assays:
Assay in all cases: DTP human tumour cell line panel, 48 h
[1] = test system: SN12C
[2] = test system: ACHN
[3] = test system: OVCAR-4
[4] = test system: TK-10
[5] = test system: CCRF-CEM
[6] = test system: SF-295
[7] = test system: RPMI-8226
[8] = test system: 786-0
[9] = test system: HOP-92
[10] = test system: NCI-H522
[11] = test system: MDA-N
[12] = test system: NCI-H460
[13] = test system: NCI-H23
[14] = test system: COLO 205
[15] = test system: MOLT-4
[16] = test system: HOP-62
[17] = test system: SK-OV-3
[18] = test system: DU-145
[19] = test system: SW-620
[20] = test system: NCI-H226

Row | Compound | GI50 [1] | GI50 [2] | GI50 [3] | GI50 [4] | GI50 [5] | GI50 [6] | GI50 [7] | GI50 [8] | GI50 [9] | GI50 [10] | GI50 [11] | GI50 [12] | GI50 [13] | GI50 [14] | GI50 [15] | GI50 [16] | GI50 [17] | GI50 [18] | GI50 [19] | GI50 [20]
1 | COc1ccc(/C=C2\C(=O)NC(=O)c3ccccc32)cc1OC | 42.3 µM (inactive) | 32.2 µM (inactive) | 34.6 µM (inactive) | > 100 µM (inactive) | 1.09 µM (active) | 52.2 µM (inactive) | 5.47 µM (inactive) | 16.8 µM (inactive) | 7.96 µM (inactive) | 16.2 µM (inactive) | > 43.6 µM (inactive) | 45.6 µM (inactive) | 49.8 µM (inactive) | 50.4 µM (inactive) | 5.77 µM (inactive) | 32.5 µM (inactive) | 36.3 µM (inactive) | > 100 µM (inactive) | 16.6 µM (inactive) | 49.4 µM (inactive)
2 | O=[N+]([O-])c1cccc2nc3ccccc3c(NCCO)c12 | 0.00197 µM (active) | 0.00151 µM (active) | 0.000719 µM (active) | 0.00269 µM (active) | 0.00989 µM (active) | 0.00467 µM (active) | 0.000682 µM (active) | 0.00315 µM (active) | 0.0016 µM (active) | 0.00248 µM (active) | 0.002 µM (active) | 0.000767 µM (active) | 0.00194 µM (active) | 0.00167 µM (active) | 0.00407 µM (active) | 0.000539 µM (active) | 0.00387 µM (active) | 0.0036 µM (active) | 0.00118 µM (active) | 0.00248 µM (active)
3 | NC(=O)N/N=C\c1ccccc1OCc1cccc(COc2ccccc2/C=N\NC(N)=O)n1 | > 100 µM (inactive) | 26.2 µM (inactive) | > 100 µM (inactive) | 30.7 µM (inactive) | > 100 µM (inactive) | 17.1 µM (inactive) | > 100 µM (inactive) | 20.5 µM (inactive) | 27.2 µM (inactive) | 64.4 µM (inactive) | > 100 µM (inactive) | > 100 µM (inactive) | 30.1 µM (inactive) | > 100 µM (inactive) | > 100 µM (inactive) | 12.4 µM (inactive) | 19 µM (inactive) | 18.8 µM (inactive) | > 100 µM (inactive) | 73.6 µM (inactive)
4 | N#Cc1c(O)c(/N=N/c2ccc(Cl)cc2)c(=O)n2c1[nH]c1ccccc12 | 46.5 µM (inactive) | 36.1 µM (inactive) | 67 µM (inactive) | 54 µM (inactive) | 31.2 µM (inactive) | 36.9 µM (inactive) | 21.5 µM (inactive) | 48.6 µM (inactive) | 26.1 µM (inactive) | 33.3 µM (inactive) | 38.7 µM (inactive) | 45.6 µM (inactive) | 46 µM (inactive) | 52.2 µM (inactive) | 29.6 µM (inactive) | 17.5 µM (inactive) | 94 µM (inactive) | 38.5 µM (inactive) | 63.2 µM (inactive) | 81.8 µM (inactive)
5 | NN/C(=N\S(=O)(=O)c1cc2ccccc2o1)Nc1ccc(Cl)cc1 | > 100 µM (inactive) | > 100 µM (inactive) | > 100 µM (inactive) | 72.6 µM (inactive) | 2.02 µM (inactive) | 63.5 µM (inactive) | > 100 µM (inactive) | 44 µM (inactive) | 20.4 µM (inactive) | 24.4 µM (inactive) | > 100 µM (inactive) | > 100 µM (inactive) | > 100 µM (inactive) | > 100 µM (inactive) | > 100 µM (inactive) | 48.8 µM (inactive) | 42.8 µM (inactive) | > 100 µM (inactive) | > 100 µM (inactive) | > 100 µM (inactive)
6 | O=C(Nc1ccc(Cl)cc1)c1cc(S(=O)(=O)NC2=Nc3ccc(Cl)cc3C(c3ccccc3)N2)c(SSc2cc(Cl)c(C(=O)Nc3ccc(Cl)cc3)cc2S(=O)(=O)NC2=Nc3ccc(Cl)cc3C(c3ccccc3)N2)cc1Cl (stereo not given) | > 100 µM (inactive) | > 100 µM (inactive) | > 100 µM (inactive) | > 100 µM (inactive) | 17.1 µM (inactive) | > 100 µM (inactive) | 97.1 µM (inactive) | > 100 µM (inactive) | 83.4 µM (inactive) | > 100 µM (inactive) | > 100 µM (inactive) | > 100 µM (inactive) | > 100 µM (inactive) | > 100 µM (inactive) | 25.9 µM (inactive) | > 100 µM (inactive) | > 100 µM (inactive) | > 100 µM (inactive) | > 100 µM (inactive) | > 100 µM (inactive)
7 | COc1cc(-c2cc(=O)c3cc4c(=O)cc(-c5cc(OC)c(OC)c(OC)c5)oc4cc3o2)cc(OC)c1OC | 32.4 µM (inactive) | 25.1 µM (inactive) | > 82.8 µM (inactive) | 16.3 µM (inactive) | > 100 µM (inactive) | 17.5 µM (inactive) | > 100 µM (inactive) | 14.3 µM (inactive) | 14.6 µM (inactive) | 27.4 µM (inactive) | > 100 µM (inactive) | > 100 µM (inactive) | 25.8 µM (inactive) | > 100 µM (inactive) | > 88.7 µM (inactive) | 12.6 µM (inactive) | 18.8 µM (inactive) | 35.7 µM (inactive) | > 100 µM (inactive) | 12.9 µM (inactive)
8 | COc1cc(/C=C2/C[C@H]3[C@@H]4CC=C5C[C@@H](O)CC[C@]5(C)[C@H]4CC[C@]3(C)NC2=O)cc(OC)c1OC | 7.36 µM (inactive) | 18.9 µM (inactive) | 15.1 µM (inactive) | 23.6 µM (inactive) | 47.8 µM (inactive) | 19.6 µM (inactive) | 5.46 µM (inactive) | 17.7 µM (inactive) | 3.69 µM (inactive) | 5.33 µM (inactive) | 23 µM (inactive) | 11.8 µM (inactive) | 22.1 µM (inactive) | > 38.9 µM (inactive) | 21.6 µM (inactive) | 23.1 µM (inactive) | 31.6 µM (inactive) | 2.28 µM (inactive) | > 73.8 µM (inactive) | 22 µM (inactive)
9 | CCOc1cc(NC(C)=O)ccc1C(=O)NN1C(=O)C(Cl)C1c1ccccc1 (stereo not given) | 13.9 µM (inactive) | 16.2 µM (inactive) | 13.5 µM (inactive) | 16.6 µM (inactive) | 2.67 µM (inactive) | 20.4 µM (inactive) | 9.95 µM (inactive) | 14.6 µM (inactive) | 12.9 µM (inactive) | 2.24 µM (inactive) | 13.8 µM (inactive) | 16 µM (inactive) | 14.3 µM (inactive) | 14.2 µM (inactive) | 3.68 µM (inactive) | 20.5 µM (inactive) | 16.9 µM (inactive) | 17.6 µM (inactive) | 12.4 µM (inactive) | 12.7 µM (inactive)
10 | Cc1ccc2c3c1O[C@H]1c4nc5ccccc5cc4C[C@@]4(O)[C@@H](C2)N(CC2CC2)CC[C@]314 | 28.6 µM (inactive) | 10.4 µM (inactive) | 13.4 µM (inactive) | 29.6 µM (inactive) | 1.39 µM (inactive) | 7.64 µM (inactive) | 4.63 µM (inactive) | 10.8 µM (inactive) | 19.9 µM (inactive) | 13.7 µM (inactive) | 11.8 µM (inactive) | 20 µM (inactive) | 20.6 µM (inactive) | 5.2 µM (inactive) | 2.5 µM (inactive) | 12.1 µM (inactive) | 14.1 µM (inactive) | 14.1 µM (inactive) | 4.29 µM (inactive) | 10.6 µM (inactive)
11 | C=CC[C@]1(C2=NC(C)(C)CO2)c2ccccc2-c2ccccc2[C@H]1C(C)=O | 15.6 µM (inactive) | 12.5 µM (inactive) | 15.6 µM (inactive) | 12.5 µM (inactive) | 7.1 µM (inactive) | 4.61 µM (inactive) | 7.23 µM (inactive) | 9.71 µM (inactive) | 16.4 µM (inactive) | 2.61 µM (inactive) | 2.74 µM (inactive) | 6.03 µM (inactive) | 12.7 µM (inactive) | 4.41 µM (inactive) | 9.27 µM (inactive) | 0.643 µM (active) | 9.31 µM (inactive) | 14.4 µM (inactive) | 7.55 µM (inactive) | 14 µM (inactive)
12 | COCC(=O)OC1CCn2c1nc1c2C(=O)C(C)=C(NC(C)=O)C1=N (stereo not given) | 3.72 µM (inactive) | 7.71 µM (inactive) | 2.19 µM (inactive) | 15.6 µM (inactive) | 2.1 µM (inactive) | 16.1 µM (inactive) | 2.27 µM (inactive) | 3.03 µM (inactive) | 3.57 µM (inactive) | 5.01 µM (inactive) | 1.82 µM (inactive) | 14 µM (inactive) | 4.34 µM (inactive) | 12.5 µM (inactive) | 2.34 µM (inactive) | 15.6 µM (inactive) | 17.7 µM (inactive) | 20.4 µM (inactive) | 2.49 µM (inactive) | 18.5 µM (inactive)
13 | COc1cc(C2c3[nH]c4ccccc4c3C[C@H]3COC(=O)N23)cc(OC)c1OC (stereo not given in full) | 0.163 µM (active) | 0.214 µM (active) | 1.55 µM (inactive) | 5.36 µM (inactive) | 0.0406 µM (active) | 0.0262 µM (active) | 0.0676 µM (active) | 0.0304 µM (active) | 0.92 µM (active) | 0.015 µM (active) | 0.0181 µM (active) | 0.055 µM (active) | 0.0776 µM (active) | 0.0687 µM (active) | 0.0966 µM (active) | 0.0467 µM (active) | 0.0366 µM (active) | 0.0879 µM (active) | 0.051 µM (active) | 0.0574 µM (active)
